The record followed here is US20260152480A1, “POLYCYCLIC COMPOUND AND USE THEREOF” (TYK MEDICINES , INC., priority 2022, published 2026).

Some results are limits rather than exact numbers.

Data set [1] concerns Human pleural mesothelioma cells NCI-H226. Nature of the data set: Proliferation inhibition assay of human pleural mesothelioma cells NCI-H226 (CCK8). In kind it is cell-based. Conditions: 72 h, 3 days incubation.
Another data set has as its system YAP-TEAD. Nature of the data set: Nano luciferase method to detect YAP-TEAD inhibitor activity (293T cells transfected with pGL3B-8×GTiiC-nLuc-CMV-fLuc). As to conditions: Homo sapiens, HEK-293T; transfected 293T cells, 48 hours incubation; read-out: Nano Luciferas detection (IC50). In kind it is cell-based.
The nature of data set [2]: Pharmacokinetic study of the drug, oral administration to rats (plasma, cerebrospinal fluid, brain tissue). In kind it is in vivo. As to conditions: SD rat, 10 mg/kg, single; for Kp: brain tissue (post perfusion) and plasma, read-out: B/P value; for Kp uu: in vivo, read-out: Kpuu Value; for AUC(0-inf) / AUC(0-t) / Cmax / MRT last / Tmax: plasma. An excerpt: Experimental Example 3 Pharmacokinetic Study of the Drug
Oral Administration Solvent: 5% DMSO+10% Solutol HS15+85% Saline
Oral administration preparation process: weighed the appropriate amount of powder, added the appropriate volume of DMSO, vortex, then added the appropriate volume of Solutol solution, vortex, and added the appropriate amount of saline, vortex ultrasound into a homogeneous and clarified state of the preparation solution.
The animal room was equipped with an air-conditioning system and well ventilated, and the indoor temperature was maintained in the range of 20-26° C., and the humidity was maintained in the range of 40%-70%. The animal room was artificially illuminated with 12 hours of light and 12 hours of dark (except for the working light that needed to be turned on for experimental operation and cleaning), and the experimental animals were free to feed and drink.
Animals were purchased and fed normally for at least 3 days, and rats that were examined by a veterinarian and had qualified physical conditions were enrolled in this experiment; each rat was labeled with a tail mark. Animals in the oral administration group were fasted overnight the day before administration, and resumed feeding and drinking freely 4 hours after administration.
Before administration, checked the state of the administered preparation, ensured the homogeneity of the preparation by vortexing, stirring or oscillating, and calculated the theoretical volume of the administered drug for each SD rat in each group according to the following formula.
Mode of administration: Oral administration to rats, fasted overnight prior to administration.

The IC50 is the point on the concentration scale where inhibition reaches its midpoint. One may read the AUC(0-inf) as total exposure, with the tail of the curve extrapolated. The low end stands for low exposure, the high end for high exposure. In general, AUC(0-t) refers to exposure summed from dosing to a finite time, without extrapolation to infinity. A high value points to more exposure. One may read the Cmax as the maximum level reached in the sampled fluid or tissue. Usually MRT last stands for the average time that molecules of a dose stay in the body. What is called Tmax is the time from dosing to the highest level. In turn, `C=CC(=O)N1CCC(c2cccnc2Oc2ccc(C(F)(F)F)cc2)CC1` [Compound T59] returned an IC50 in data set [1] of no more than 100 nM. For the same molecule, the IC50 in the data set on YAP-TEAD was no more than 100 nM. In data set [2], the “HL—” value was found to be 2.66 h, the Kp worked out at 1.22, the Kp uu amounted to 0.765 and the AUC(0-inf) was found to be 3920 ng·h/mL. In data set [2], the AUC(0-t) stood at 3910 ng·h/mL, the Cmax came to 679 ng/mL, the MRT last is 4.6 h and the Tmax was 1.5 h.

The molecule `C=CC(=O)N1CCC(c2cc(-c3cnn(C)c3)cnc2Nc2ccc(C(F)(F)F)cc2)CC1` [Compound T61] showed an IC50 in data set [1] of 1000 to 5000 nM. In addition, the IC50 in the data set with YAP-TEAD is no more than 100 nM. In data set [2], the “HL—” value amounted to 2.95 h, the Kp came out at 0.56, the Kp uu came to 0.038 and the AUC(0-inf) came to 13200 ng·h/mL. In addition, in data set [2], the AUC(0-t) stood at 10800 ng·h/mL, the Cmax turned out to be 1960 ng/mL, the MRT last was 3.49 h and the Tmax amounted to 2.67 h.

Turning to `C=CC(=O)N1CCC(c2cc(-c3cc[nH]n3)cnc2Nc2ccc(C(F)(F)F)cc2)CC1` [Compound T92], the IC50 in data set [1] lay within 100 to 1000 nM. Moreover, the IC50 in the data set on YAP-TEAD was no more than 100 nM. In data set [2], the “HL—” value stood at 1.59 h, the AUC(0-inf) was found to be 4830 ng·h/mL, the exposure AUC(0-t) was determined as 4770 ng·h/mL and the Cmax is 901 ng/mL. Also, in data set [2], the MRT last was 3.8 h and the Tmax is 2.67 h.
